From ChEMBL document CHEMBL1153558, “In vitro antifungal susceptibilities of five species of sporothrix” (2008) come the findings set out here.

Converted amounts (≈) assume the structure as drawn. Numbered stars: 1 amine (or outer) side, 2 acyl side, 3 side chain; on linkers, the order of the positions; unused ones are H or OH. Bridge positions count the residues as written; N and C are the ends. Square brackets hold non-standard residues; d marks the D form. Peptide text beside a SMILES is read from it. * marks the point of attachment. hTyr(3S-OH,4S-OH,3'-OSO3H) = N[C@H](C(=O)O)[C@H](O)[C@@H](O)c1ccc(O)c(OS(=O)(=O)O)c1; Orn(4R-OH,5R-OH) = O=C([C@H](C[C@@H](O)[C@@H](O)N[*:3])N[*:1])[*:2]; Pro(3S-OH,4S-Me) = C[C@H]1CN[C@H](C(=O)O)[C@H]1O; X1 = CCCCCOc1ccc(-c2cc(-c3ccc(C(=O)*)cc3)no2)cc1; Gln(3R-OH) = NC(=O)C[C@@H](O)[C@H](N)C(=O)O; Hyp = O=C(O)[C@@H]1C[C@@H](O)CN1

Type in all cases: functional
Assay [1] concerns Sporothrix. The assay is described as follows: Antifungal activity against Sporothrix brasiliensis after 72 hrs by microdilution method.
Assay [2] concerns Sporothrix schenckii. As to the kind of experiment: Antifungal activity against Sporothrix schenckii after 72 hrs by microdilution method. (In general: Broth dilution looks for growth in wells or tubes with falling amounts of substance.)
In assay [3] the test system is Sporothrix globosa. The assay is described as follows: Antifungal activity against Sporothrix globosa after 72 hrs by microdilution method.
Assay [4] has as its system Sporothrix. As to the kind of experiment: Antifungal activity against Sporothrix mexicana after 72 hrs by microdilution method.
The subject of assay [5] is Sporothrix albicans. As to the kind of experiment: Antifungal activity against Sporothrix albicans after 72 hrs by microdilution method.

For orientation: MIC50 means an inhibitory concentration at the 50% level, which refers to growth in some studies and to a panel of isolates in others. Read a low MIC50 as greater potency. As usually defined, the MIC90 is the lowest concentration that inhibits either 90% of growth or 90% of the strains tested, depending on the study. Read a low MIC90 as greater potency. By MIC is commonly meant the smallest concentration in the dilution series that meets the test's criterion for growth inhibition. A high value points to weaker potency. For the molecule `C[C@@H](n1cnc2cc(Cl)ccc2c1=O)[C@](O)(Cn1cncn1)c1ccc(F)cc1F` [ALBACONAZOLE], the MIC50 in assay [1] was found to be 1 µg/mL (≈ 2.32 µM); in assay [2], 16 µg/mL (≈ 37.1 µM); in assay [3], 16 µg/mL (≈ 37.1 µM); in assay [5], 16 µg/mL (≈ 37.1 µM). For the same molecule, the MIC90 came out at 4 µg/mL (≈ 9.26 µM) in assay [1], 32 µg/mL (≈ 74.1 µM) in assay [2], 16 µg/mL (≈ 37.1 µM) in assay [3] and 32 µg/mL (≈ 74.1 µM) in assay [5]. Besides, the MIC in assay [4] was determined as 32 µg/mL (≈ 74.1 µM).
With `C[C@@H]1[C@H](O)[C@@H](C)/C=C/C=C/C=C/C=C/C=C/C=C/C=C/[C@H](O[C@@H]2O[C@H](C)[C@@H](O)[C@H](N)[C@@H]2O)C[C@@H]2O[C@](O)(C[C@@H](O)C[C@@H](O)[C@H](O)CC[C@@H](O)C[C@@H](O)CC(=O)O[C@H]1C)C[C@H](O)[C@H]2C(=O)O` [AMPHOTERICIN B], the MIC50 is 2 µg/mL (≈ 2.16 µM) in assay [1], 4 µg/mL (≈ 4.33 µM) in assay [2], 4 µg/mL (≈ 4.33 µM) in assay [3] and 4 µg/mL (≈ 4.33 µM) in assay [5]. The MIC90 was determined as 4 µg/mL (≈ 4.33 µM) in assay [1], 4 µg/mL (≈ 4.33 µM) in assay [2], 8 µg/mL (≈ 8.66 µM) in assay [3] and 8 µg/mL (≈ 8.66 µM) in assay [5]. Also, it took 16 µg/mL (≈ 17.3 µM) to inhibit growth in assay [4] (MIC).
Regarding `Clc1cc(Cl)c2c(c1)CCc1ccccc1C2n1ccnc1` (stereo not given) [EBERCONAZOLE], the MIC50 was found to be 0.25 µg/mL (≈ 0.759 µM) in assay [1], 2 µg/mL (≈ 6.07 µM) in assay [2], 2 µg/mL (≈ 6.07 µM) in assay [3] and 8 µg/mL (≈ 24.3 µM) in assay [5]. Moreover, the MIC90 in assay [1] amounted to 1 µg/mL (≈ 3.04 µM); in assay [2] it was 8 µg/mL (≈ 24.3 µM); in assay [3] it was 4 µg/mL (≈ 12.1 µM); in assay [5] it was 16 µg/mL (≈ 48.6 µM). Also, the minimum inhibitory concentration (MIC) in assay [4] came to 32 µg/mL (≈ 97.2 µM).
In the case of `OC(Cn1cncn1)(Cn1cncn1)c1ccc(F)cc1F` [FLUCONAZOLE], the MIC in assay [1], in assay [2], in assay [3], in assay [4] and in assay [5] was 128 µg/mL (≈ 418 µM) throughout. For the same molecule, the MIC50 in assay [1], in assay [2], in assay [3] and in assay [5] was 128 µg/mL (≈ 418 µM) throughout. The MIC90 in assay [1], in assay [2], in assay [3] and in assay [5] was 128 µg/mL (≈ 418 µM) in each case.
Take `Nc1nc(=O)[nH]cc1F` [FLUCYTOSINE]: the MIC50 was found to be 16 µg/mL (≈ 124 µM) in assay [1], 16 µg/mL (≈ 124 µM) in assay [2], 64 µg/mL (≈ 496 µM) in assay [3] and 128 µg/mL (≈ 992 µM) in assay [5]. Moreover, the MIC90 in assay [1], in assay [2], in assay [3] and in assay [5] was 128 µg/mL (≈ 992 µM) each time. In addition, the MIC in assay [4] and in assay [5] was 128 µg/mL (≈ 992 µM) each time.
Turning to `CCC(C)n1ncn(-c2ccc(N3CCN(c4ccc(OCC5COC(Cn6cncn6)(c6ccc(Cl)cc6Cl)O5)cc4)CC3)cc2)c1=O` (stereo not given) [ITRACONAZOLE], the minimum inhibitory concentration (MIC) in assay [1] worked out at 0.5 µg/mL (≈ 0.709 µM); in assay [4], 32 µg/mL (≈ 45.3 µM); in assay [5], 32 µg/mL (≈ 45.3 µM). For the same molecule, the MIC50 in assay [1] came out at 0.5 µg/mL (≈ 0.709 µM); in assay [2] it was 4 µg/mL (≈ 5.67 µM); in assay [3], 32 µg/mL (≈ 45.3 µM); in assay [5] it was 32 µg/mL (≈ 45.3 µM). Further, the MIC90 was 1 µg/mL (≈ 1.42 µM) in assay [1], 32 µg/mL (≈ 45.3 µM) in assay [2], 32 µg/mL (≈ 45.3 µM) in assay [3] and 32 µg/mL (≈ 45.3 µM) in assay [5].
In the case of `CC(=O)N1CCN(c2ccc(OCC3COC(Cn4ccnc4)(c4ccc(Cl)cc4Cl)O3)cc2)CC1` (stereo not given) [KETOCONAZOLE], the MIC50 in assay [1] stood at 0.125 µg/mL (≈ 0.235 µM); in assay [2] it was 1 µg/mL (≈ 1.88 µM); in assay [3] it was 1 µg/mL (≈ 1.88 µM); in assay [5], 4 µg/mL (≈ 7.53 µM). Further, the MIC90 in assay [1] stood at 0.25 µg/mL (≈ 0.47 µM); in assay [2] it was 2 µg/mL (≈ 3.76 µM); in assay [3] it was 2 µg/mL (≈ 3.76 µM); in assay [5], 4 µg/mL (≈ 7.53 µM). Also, the MIC in assay [4] was 4 µg/mL (≈ 7.53 µM).
On to `CCCCCOc1ccc(-c2cc(-c3ccc(C(=O)N[C@H]4C[C@@H](O)[C@@H](O)NC(=O)[C@@H]5[C@@H](O)[C@@H](C)CN5C(=O)[C@H]([C@H](O)CC(N)=O)NC(=O)[C@H]([C@H](O)[C@@H](O)c5ccc(O)c(OS(=O)(=O)O)c5)NC(=O)[C@@H]5C[C@@H](O)CN5C(=O)[C@H]([C@@H](C)O)NC4=O)cc3)no2)cc1` [MICAFUNGIN] (X1-[Orn(4R-OH,5R-OH)]T[Hyp][hTyr(3S-OH,4S-OH,3'-OSO3H)][Gln(3R-OH)][Pro(3S-OH,4S-Me)]; lactam 1-C), for which the MIC in assay [1], in assay [2], in assay [3], in assay [4] and in assay [5] was 256 µg/mL (≈ 202 µM) each time. For the same molecule, the MIC50 in assay [1], in assay [2], in assay [3] and in assay [5] was 256 µg/mL (≈ 202 µM) in each case. Also, the MIC90 in assay [1], in assay [2], in assay [3] and in assay [5] was 256 µg/mL (≈ 202 µM) throughout.
Turning to `CC[C@@H]([C@H](C)O)n1ncn(-c2ccc(N3CCN(c4ccc(OC[C@@H]5CO[C@@](Cn6cncn6)(c6ccc(F)cc6F)C5)cc4)CC3)cc2)c1=O` [POSACONAZOLE], the MIC50 in assay [1] was determined as 0.5 µg/mL (≈ 0.713 µM); in assay [2], 1 µg/mL (≈ 1.43 µM); in assay [3] it was 2 µg/mL (≈ 2.85 µM); in assay [5], 2 µg/mL (≈ 2.85 µM). Further, the MIC90 in assay [1] was determined as 1 µg/mL (≈ 1.43 µM); in assay [2] it was 8 µg/mL (≈ 11.4 µM); in assay [3], 8 µg/mL (≈ 11.4 µM); in assay [5] it was 2 µg/mL (≈ 2.85 µM). The molecule further displayed a minimum inhibitory concentration (MIC) in assay [4] of 32 µg/mL (≈ 45.7 µM).
As for `C[C@@H](c1nc(-c2ccc(C#N)cc2)cs1)[C@](O)(Cn1cncn1)c1ccc(F)cc1F` [RAVUCONAZOLE], the MIC50 is 0.5 µg/mL (≈ 1.14 µM) in assay [1], 8 µg/mL (≈ 18.3 µM) in assay [2], 8 µg/mL (≈ 18.3 µM) in assay [3] and 16 µg/mL (≈ 36.6 µM) in assay [5]. The MIC90 in assay [1] was 1 µg/mL (≈ 2.29 µM); in assay [2] it was 16 µg/mL (≈ 36.6 µM); in assay [3], 16 µg/mL (≈ 36.6 µM); in assay [5], 32 µg/mL (≈ 73.1 µM). In addition, it took 32 µg/mL (≈ 73.1 µM) to inhibit growth in assay [4] (MIC).
Turning to `CN(C/C=C/C#CC(C)(C)C)Cc1cccc2ccccc12` [TERBINAFINE], the results for the minimal inhibitory concentration (MIC) in assay [1] and in assay [4] were 0.06 µg/mL (≈ 0.206 µM) and 0.5 µg/mL (≈ 1.72 µM), respectively. For the same molecule, the MIC50 in assay [1] was found to be 0.06 µg/mL (≈ 0.206 µM); in assay [2] it was 0.25 µg/mL (≈ 0.858 µM); in assay [3] it was 0.25 µg/mL (≈ 0.858 µM); in assay [5] it was 0.5 µg/mL (≈ 1.72 µM). Besides, the MIC90 came out at 0.25 µg/mL (≈ 0.858 µM) in assay [1], 0.5 µg/mL (≈ 1.72 µM) in assay [2], 0.5 µg/mL (≈ 1.72 µM) in assay [3] and 4 µg/mL (≈ 13.7 µM) in assay [5].
On to `C[C@@H](c1ncncc1F)[C@](O)(Cn1cncn1)c1ccc(F)cc1F` [VORICONAZOLE], for which the MIC50 in assay [1] was determined as 4 µg/mL (≈ 11.5 µM); in assay [2], 32 µg/mL (≈ 91.6 µM); in assay [3], 32 µg/mL (≈ 91.6 µM); in assay [5], 8 µg/mL (≈ 22.9 µM). Further, the MIC90 in assay [1] stood at 8 µg/mL (≈ 22.9 µM); in assay [2], 32 µg/mL (≈ 91.6 µM); in assay [3], 32 µg/mL (≈ 91.6 µM); in assay [5], 32 µg/mL (≈ 91.6 µM). In assay [4], it took 16 µg/mL (≈ 45.8 µM) to inhibit growth (MIC).
